Laboratory results as given in ChEMBL document CHEMBL1201862, “PubChem BioAssay data set” (2004).
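Method: 48-hour compound exposure of cells in 96-well plates, five concentrations, linear interpolation of endpoints. GI50: concentration for 50% inhibition of growth.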 Active and inactive are the calls of the source. Cut-off read from the data, not from the text of the source: active = GI50 up to about 1.1 µM and inactive = higher.

Columns and labels:
Assay in all cases: NCI-60 cell line screen, 48 h
786-0 = system: 786-0
A498 = system: A498
A549 = system: A549
ACHN = system: ACHN
CAKI-1 = system: CAKI-1
CCRF-CEM = system: CCRF-CEM
COLO 205 = system: COLO 205
DLD-1 = system: DLD-1
DMS-273 = system: DMS-273
EKVX = system: EKVX
HCC 2998 = system: HCC 2998
HCT-116 = system: HCT-116
HCT-15 = system: HCT-15
HL-60 = system: HL-60
HOP-18 = system: HOP-18
HOP-62 = system: HOP-62
HOP-92 = system: HOP-92
HT-29 = system: HT-29
IGROV-1 = system: IGROV-1
K562 = system: K562
KM-20L2 = system: KM-20L2
KM12 = system: KM12
LOX IMVI = system: LOX IMVI
LXFL 529 = system: LXFL 529
M14 = system: M14
M19-MEL = system: M19-MEL
MOLT-4 = system: MOLT-4
NCI-H226 = system: NCI-H226
NCI-H23 = system: NCI-H23
NCI-H460 = system: NCI-H460
NCI-H522 = system: NCI-H522
OVCAR-3 = system: OVCAR-3
OVCAR-4 = system: OVCAR-4
OVCAR-8 = system: OVCAR-8
RPMI-8226 = system: RPMI-8226
RXF 393 = system: RXF 393
SF-268 = system: SF-268
SF-295 = system: SF-295
SF-539 = system: SF-539
SK-MEL-28 = system: SK-MEL-28
SK-MEL-2 = system: SK-MEL-2
SK-MEL-5 = system: SK-MEL-5
SK-OV-3 = system: SK-OV-3
SN12C = system: SN12C
SNB-19 = system: SNB-19
SNB-75 = system: SNB-75
SR = system: SR
SW-620 = system: SW-620
TK-10 = system: TK-10
U-251 = system: U-251
UACC-257 = system: UACC-257
UACC-62 = system: UACC-62
UO-31 = system: UO-31
XF498 = system: XF498

`CN(C)CN(C)c1nc(N(C)C)nc(N(C)CN(C)C)n1` was tested, and the GI50 (786-0) was 34.4 µM (inactive), the GI50 (A498) was > 100 µM (inactive) and the GI50 (A549) was > 100 µM (inactive). For the same compound, the GI50 (ACHN) was 45.4 µM (inactive), the GI50 (CAKI-1) was > 100 µM (inactive) and the GI50 (CCRF-CEM) was 25.7 µM (inactive). For the same compound, the GI50 (COLO 205) was 27.8 µM (inactive), the GI50 (DLD-1) was 42.7 µM (inactive) and the GI50 (DMS-273) was 17.5 µM (inactive). For the same compound, the GI50 (EKVX) was > 100 µM (inactive), the GI50 (HCC 2998) was > 100 µM (inactive) and the GI50 (HCT-116) was 32 µM (inactive). For the same compound, the GI50 (HCT-15) was 24.7 µM, the GI50 (HL-60) was 17 µM (inactive) and the GI50 (HOP-18) was > 100 µM (inactive). For the same compound, the GI50 (HOP-62) was > 100 µM (inactive), the GI50 (HOP-92) was 63 µM (inactive) and the GI50 (HT-29) was 57.8 µM (inactive). The GI50 (IGROV-1) was > 100 µM (inactive), the GI50 (K562) was 30.8 µM (inactive) and the GI50 (KM-20L2) was 74.5 µM (inactive). For the same compound, the GI50 (KM12) was > 100 µM (inactive), the GI50 (LOX IMVI) was 22.9 µM (inactive) and the GI50 (LXFL 529) was 30.3 µM (inactive). For the same compound, the GI50 (M14) was 36.7 µM (inactive), the GI50 (M19-MEL) was 31.8 µM (inactive) and the GI50 (MOLT-4) was 26.2 µM (inactive). For the same compound, the GI50 (NCI-H226) was > 100 µM (inactive), the GI50 (NCI-H23) was 27.2 µM (inactive) and the GI50 (NCI-H460) was 57.3 µM (inactive). The GI50 (NCI-H522) was > 100 µM (inactive), the GI50 (OVCAR-3) was > 100 µM (inactive) and the GI50 (OVCAR-4) was 42.4 µM (inactive). For the same compound, the GI50 (OVCAR-8) was 27.9 µM (inactive), the GI50 (RPMI-8226) was 27.2 µM (inactive) and the GI50 (RXF 393) was 19.5 µM (inactive). For the same compound, the GI50 (SF-268) was 51.6 µM (inactive), the GI50 (SF-295) was > 100 µM (inactive) and the GI50 (SF-539) was 50.4 µM (inactive). For the same compound, the GI50 (SK-MEL-28) was 25.8 µM (inactive), the GI50 (SK-MEL-2) was 20.9 µM (inactive) and the GI50 (SK-MEL-5) was 51.1 µM (inactive). For the same compound, the GI50 (SK-OV-3) was > 100 µM (inactive), the GI50 (SN12C) was 63.5 µM (inactive) and the GI50 (SNB-19) was > 100 µM (inactive). For the same compound, the GI50 (SNB-75) was 60.3 µM (inactive), the GI50 (SR) was 24.4 µM (inactive) and the GI50 (SW-620) was 23.9 µM (inactive). For the same compound, the GI50 (TK-10) was > 100 µM (inactive), the GI50 (U-251) was > 100 µM (inactive) and the GI50 (UACC-257) was 34.7 µM (inactive). For the same compound, the GI50 (UACC-62) was 19.8 µM (inactive), the GI50 (UO-31) was > 100 µM (inactive) and the GI50 (XF498) was 96.2 µM (inactive).
